What was measured:
canola (Brassica napus) [1] = experiment: Canola seed treatment field test: canola plant vigor under natural flea beetle infestation; assay type: in vivo; conditions: 13 days after canola emergence
Experimental: (§1) The effectiveness of sulfoxaflor as a canola (Brassica napus) seed treatment to control feeding damage by cabbage flea beetle (Phyllotreta cruciferae) was evaluated against the commercial standard thiamethoxam (Helix Xtra). Canola seeds were sprayed with a range of insecticides, including Helix Xtra at a use rate of about 0.4 milligrams (mg) thiamethoxam ai/seed, spinosyn A and spinosyn D (spinosad) at a low use rate of about 0.2 mg ai/seed and a high use rate of about 0.6 mg ai/seed, spinetoram at a low use rate of about 0.2 mg ai/seed and a high use rate about 0.6 mg ai/seed, and sulfoxaflor at a low use rate of about 0.2 mg ai/seed and a high use rate about 0.6 mg ai/seed. Each treatment was replicated four (4) times. The canola seeds were planted and then exposed to a natural infestation of the cabbage flea beetles soon after emergence.
Canola plant vigor was evaluated at thirteen (13) days after the canola seed emerged from the ground described above. […] As depicted in FIG. 3, both the low use rate of sulfoxaflor and the high use rate of sulfoxaflor facilitated improved canola plant vigor as compared to the use of Helix Xtra.

canola (Brassica napus) [2] = experiment: Canola seed treatment field test: canola plant yield under natural flea beetle infestation; assay type: in vivo; conditions: 107 days after canola emergence
Experimental: as §1
Canola plant yield was evaluated at 107 days after the canola seed emerged from the ground described above. […] As depicted in FIG. 4, the low use rate of sulfoxaflor facilitated a canola plant yield similar to that facilitated by the use of Helix Xtra, and the high use rate of sulfoxaflor facilitated improved canola plant yield as compared to the use of Helix Xtra.

[3] = high use rate about 0.6 mg ai/seed
[4] = low use rate about 0.2 mg ai/seed

CC(c1ccc(C(F)(F)F)nc1)S(C)(=O)=NC#N (stereo not shown) [sulfoxaflor]
canola plant vigor (canola (Brassica napus) [1]; [3]): about 69%
canola plant vigor (canola (Brassica napus) [1]; [4]): about 87%
canola plant yield (canola (Brassica napus) [2]; [3]): about 4500 kg/ha
canola plant yield (canola (Brassica napus) [2]; [4]): about 4050 kilograms (Kg)/hectare (ha)
